Data from patent US10751373B2, “PD-L1 expressing hematopoietic stem cells and uses” (The Children's Medical Center Corporation, priority 2015, dated 2020).
Where two headings read alike, the source gives them in different places.

Key:
[1] = test system: Lin^−c-Kit^+Sca-1^+ cells
Procedure: (§1) We evaluated the characteristics of CXCR4 antagonist-mobilized HSCs by FACS analysis. Lin^−c-Kit^+Sca-1^+ cells were sorted from islet-transplanted or naïve CXCR4 antagonist-treated mice after 7 and 14 days of treatment. […] To evaluate the immunoregulatory role of PD-L1 in murine HSCs, we investigated the effect of mobilized HSCs from WT and PD-L1 KO mice on the alloimmune response in vitro. A standard MLR assay was performed in which HSCs (from WT B6 or PD-L1 KO mice) were syngeneic to responder cells (CD4^+ cells from B6) but allogeneic to bone marrow-derived DCs (from BALB/c). […] The percentage of peripheral PD-L1^+ KLS in 10-week-old NOD and B6 mice was evaluated by FACS. […] We performed a pilot study to assess the feasibility of generation of PD-L1^+ HSCs in vitro by pharmacologic approach. KLS cells were isolated from splenocytes of B6 and NOD mice by magnetic beads and cultured with standard stem cell medium plus PGE2 (2 μl, 10 μM).

[2] = test system: CD34^+ cells
Description: To assess whether mobilization alters expression of PD-L1 on HSCs we studied the immune phenotype of HSCs before and after mobilization with anti-CXCR4 in 5 healthy subjects and 8 individuals with T1D.
Blood samples were obtained from new onset diabetic individuals (New-onset T1D), long-standing diabetic individuals (T1D) and healthy individuals (CTRL) in accordance with The San Raffaele Scientific Research Institute under an Institutional Review Board committee approval. Peripheral blood mononuclear cells (PBMC) fractions were isolated by Ficoll density gradient centrifugation for cell culturing experiments. Additional blood samples were obtained from T1D subjects and CTRL at baseline before treatment and 6 hours after treatment with CXCR4-antagonist (Mozobil; Sanofi) at the dose of 0.24 mg/kg body weight in accordance with the Institution Review Board Committee of Padova (2996P) and was performed in accordance with the Declaration of Helsinki (Clinical trial registered on clinicaltrials.gov (NCT02056210)). Patients with Type 1 Diabetes aged 18-65 years were recruited among those referred to the diabetes outpatient clinic of the University Hospital of Padova. Individuals without diabetes aged 18-65 years were recruited from those referred to the same outpatient clinic for screening of other metabolic diseases. All provided written informed consent. […] Women with childbearing potential could participate in the study if on oral contraception, and a negative pregnancy test was required before study entry. […] All medications for the treatment of diabetes and for other medical conditions were allowed during the study.
To assess PD-L1, PD-L2 and PD-1 expression on human HSCs, fresh blood collected from healthy individuals, T1D and new-onset T1D individuals was stained with PE-Cy5.5 anti-human CD34, PE anti-human PD-L1 or PD-L2 or PD-1 (BD Biosciences). […]

[3] = test system: CD34^+ cells; assay: Ex vivo culture of human CD34+ cells with PGE2, PD-L1 expression by FACS; assay type: cell-based
Procedure: CD34^+ cells were isolated from patients (20 ml of blood) using magnetic beads and ˜1×10^6 cells were plated in a U-bottom 96-well plate with 200 μl of the indicated medium. STFIA medium was defined as serum-free medium supplemented with 10 μg/ml heparin, 10 ng/ml human SCF, 20 ng/ml human TPO, 10 ng/ml human FGF-1, 100 ng/ml IGFBP2, and 500 ng/ml Angptl3. PGE2 was added the culture at 0 h, 24 h, 72 h and 6 days. An aliquot of 2 μl of diluted PGE2 at a concentration of 10 μM was added to the 200 μl of each well in the 96-well plate. The approximate final concentration of PGE2 in each well is 0.1 μM. Therefore, the cells are exposed to ˜0.1 μM of PGE2. The periodic addition of PGE2 at 24 h, 72 h and 6 days serves to maintain the PGE2 in the culture media. Cells were cultured for 7 days at 37° C. in 5% CO2 and the normal level of O2.
Alternatively, cells are cultured in the same conditions for 48 h in the absence of PGE2, after which and PGE2 is added and then later at 24 h after the initial additional. PGE2 is added to the same approximate final concentration of PGE2 of 0.1 μM. We typically observed a ˜10-fold increase of CD34^+PD-L1^+ of cells after 8 days of culture when compared with a cell culture with the same medium cultured for the same time in the same conditions with cells obtained from the same subjects but without addition of PGE2.
Human – human HSCs were cultured using StemSpan supplemented with human stem cell growth factors as previously reported (22). Briefly, CD34^+ cells were plated at 5×10^5 cells/ml in supplemented StemSpan on a 96-well plate, at 200 μl/well for 7 days. HSCs were pulsed with PGE2 as described in murine experiments. PD-L1^+ HSCs were quantified by FACS analysis at different timepoints and at the end of the procedure.

[4] = test system: KLS cells; assay: In vitro culture of murine KLS cells with PGE2, PD-L1+ HSCs by FACS; assay type: cell-based; conditions: KLS of B6 and NOD mice; PGE2 (2 μl, 10 μM); after 8 days
Procedure: as §1

[5] = test system: CD34+ cells; assay: HSC mobilization with hrG-CSF (trial NCT01102699); assay type: in vivo, human; conditions: 5 μg/kg
[6] = after 7 and 14 days of treatment

In the case of `c1cc(CN2CCCNCCNCCCNCC2)ccc1CN1CCCNCCNCCCNCC1` [CXCR4 antagonist, plerixafor], the “PD-L1^+ HSCs in bone marrow” value ([1]; B6 islet-transplanted mice, 6 h after initiation of treatment) is reported as “did not increase”, the “CXCR4 expressed by extracted HSCs” value [1, 6] is reported as 38.4±4.2% and the “PD-L1 expressed by mobilized HSCs” value [1, 6] is reported as 58.0±7.1%. For the same molecule, the “percentage of CD34^+ PD-L1^+ cells after mobilization” value ([2]; 5 controls and 8 T1D individuals) was “decrease”, the “PD-L1 expression on CD34^+ cells after mobilization” value ([2]; T1D individuals (n=8), before 1.5±0.8) was 4.7±1.5 and the “PD-L1 expression on CD34^+ cells after mobilization” value ([2]; healthy subjects (n=5), before 0.6±0.2) was 6.2±0.6.

In the case of `CCCCC[C@H](O)/C=C/[C@H]1[C@H](O)CC(=O)[C@@H]1C/C=C\CCCC(=O)O` [PGE2, prostaglandin E2], the “increase in the percentage of PD-L1^+ HSCs” value ([3]; CD34+ cells of T1D individuals (n=10), after 7 days) is reported as roughly 8 times fold, the “increased expression of PD-L1 as compared to baseline” value ([3]; PGE2 culture protocol) is reported as “at least 5 fold” and the “increase of CD34^+PD-L1^+ of cells” value ([3]; PGE2 ~0.1 μM, after 8 days of culture vs same culture without PGE2) is reported as roughly 10 fold. The “increase in the PD-L1^+ HSCs” value [4] was roughly 30 % fold.

B1: hrG-CSF: granulocyte colony stimulating factor (protein, UniProt P09919 31-207, looked up)
Granulocyte …: TPLGPASSLPQSFLLKCLEQVRKIQGDGAALQEKLVSECATYKLCHPEELVLLGHSLGIPWAPLSSCPSQALQLAGCLSQLHSGLFLYQGLLQALEGISPELGPTLDTLQLDVADFATTIWQQMEELGMAPALQPTQGAMPAFASAFQRRAGGVLVASHLQSFLEVSYRVLRHLAQP
B1 was tested, and the “CD34+ cell mobilization” value ([5]; T1D individuals) was “impaired mobilization” and the “CD34+ cell mobilization” value ([5]; healthy controls) was “significantly increased”.
